The subject of data set [1] is Swiss male mice. As to the kind of experiment: rota-rod test (muscle relaxant activity). The data set is classed as in vivo. The following applies: for Resistance time (sec. M ± S.E.): thirty minutes before the test. The procedure:
Muscle relaxant activity was evaluated with the rota-rod test. Swiss male mice weighing 20-25 g were treated intraperitoneally with the β-D isomer of compound (Ib) at doses of 1-3-10 mg/kg, thirty minutes before the test. Relaxant activity on striated muscles was evaluated by testing the resistance of the mice to the stimuli of a rotating plane revolving at increasing rate, from 2 to 50 r.p.m.

The nature of data set [2]: acute toxicity (DL50 i.p.). To be noted: for DL50/DE50: toxic/active dose ratio.
Where [3] appears, read: rota-rod, mice, dose 1 mg/Kg i.p.
[4] abbreviates: rota-rod, mice, dose 3 mg/Kg i.p.
The mark [5] stands for this setting: rota-rod, mice, dose 10 mg/Kg i.p.
Setting [6] is: rota-rod, mice, i.p., Table 1, with limits in brackets.

As for `COc1c(O[C@@H]2OC[C@@H](O)[C@H](O)[C@H]2O)cc2c(c1OC)-c1ccc(SC)c(=O)cc1C(NC(C)=O)CC2` (single isomer, unassigned) [Compound (Ib) isomer β-D, 3-O-β-D-xylopyranosyl-3-O-demethylthiocolchicine], the values for the DE50 in data set [1] (Table 2) and in data set [1] (setting [6]) were 2.23 mg/kg i.p and 2.23 (1.84-2.82) mg/Kg, respectively. Also, the “muscle relaxant activity compared with thiocolchicoside” value in data set [1] (rota-rod, mice, 1-3-10 mg/kg i.p.) is “more active than thiocolchicoside”. Moreover, the “Resistance time (sec. M ± S.E.)” value in data set [1] (setting [3]) was 270 ± 19 s; in data set [1] (setting [4]) it was 175 ± 14 s; in data set [1] (setting [5]), 80 ± 10 s. Moreover, the DL50 is 80 mg/kg i.p in data set [2] (Table 2) and 80 (63-94) mg/kg in data set [2] (i.p.). Besides, the DL50/DE50 in data set [2] (i.p.) is recorded as 35.87.

Regarding `COc1c(O[C@@H]2O[C@H](CO)[C@@H](O)[C@H](O)[C@H]2O)cc2c(c1OC)-c1ccc(SC)c(=O)cc1[C@@H](NC(C)=O)CC2` [Thiocolchicoside isomer β-D, 3-demethyl-thiocolchicine glucoside, reference compound], the DE50 in data set [1] (Table 2) is given as 4.47 mg/kg i.p; in data set [1] (setting [6]), 4.47 (3.16-7.01) mg/Kg. The “Resistance time (sec. M ± S.E.)” value is 345 ± 20 s in data set [1] (setting [3]), 265 ± 17 s in data set [1] (setting [4]) and 110 ± 12 s in data set [1] (setting [5]). Further, the DL50 in data set [2] (Table 2) was determined as 20 mg/kg i.p; in data set [2] (i.p.), 20 mg/kg. Further, the DL50/DE50 in data set [2] (i.p.) is 4.47.

The record behind these values is US7683163B2, “Colchicoside analogues” (priority 2003, dated 2010).
